Reference: US8987246B2, “Methods for treatment of autism spectrum disorder” (The Johns Hopkins University, priority 2012, dated 2015)

Legend:
[1] = system: subjects with Smith-Lemli-Opitz Syndrome; test: Retrospective analysis of rate of change in current state ADI scores before and after cholesterol supplementation; assay type: in vivo, human; conditions: for Cholesterol effect (regression coefficient) on average change in ADI Nonverbal score per year / Cholesterol effect (regression coefficient) on average change in ADI Repetitive score per year / Cholesterol effect (regression coefficient) on average change in ADI Social score per year / Cholesterol effect (regression coefficient) on average change in ADI Verbal score per year: negative = improvement
Description: Cholesterol Supplementation Improved Behavioral Symptoms and May Improve ASD Features in SLOS. The Autism Diagnostic Interview was conducted with 6 SLOS individuals, and data was obtained for 3 “current state” time-points: age 4-5, just before starting cholesterol supplementation, and present while on cholesterol. The change in the score of three ADI algorithm domains—Social, Communication, and Restricted, Repetitive, and Stereotyped Behavior—was estimated. Because the time between visits varied from subject to subject, a model was developed to control for age and time lapse between tests. A detailed description of the model and outcomes is included in Example 1. In summary, on the Social domain, the individuals on cholesterol supplementation improved by an average of 7.07 points more than children not on supplementation (p value 0.008). The ADI Communication domain has a non-verbal score that is completed for all individuals and a verbal score that is completed in those individuals who have phrase speech. The value for the non-verbal score is within the verbal total score. In the non-verbal children, the language domain score improved 2.51, p value 0.04. […] In the Repetitive domain, the children worsened an average of 1.54 points (p value<0.001) (Example 1).
The variables listed in the analysis of the primary outcomes are below. i=1, . . . , 6 children, j=2, 3 visits • socialchij=average change in social measure per year for child i between age at visit j and age at visit j−1. (More specifically, socialchij is social score at visit j minus social score at visit j−1, divided by the number of years between visits j and j−1.) • verbalchij=average change in verbal measure per year for child i between age at visit j and age at visit j−1. • nonverbalchij=average change in nonverbalchij measure per year for child i between age at visit j and age at visit j−1. • repetchij=average change in repetitive measure per year for child i between age at visit j and age at visit j−1.
ageij=age of child i at visit j at which measure was performed
agedifij=number of years between visit j and visit j−1
agecholij=age at which cholesterol supplementation began for child i
cholij=1 if cholesterol supplementation has occurred at prior to visit j for child i.
Note that the large improvements are consistent with large negative values. In other words, if a child has a large improvement in social score between visits j−1 and j, this will be reflected as a large negative value for socialchij.
So, the idea is to model the average change in scores before and after supplementation, adjusting for age, the number of years between visits, and the age at which supplementation occurred. To do this, our linear model for “social” is socialchij=β0i+[…]+β2agedifij+β3agecholij+β4cholij+eij
We use a linear regression model that allows for correlation between observations from the same individual. Using this model, we estimate the […] parameters in the model, which measure the direction and magnitude of the association between social score change and each of the covariates (i.e., age, age difference, age at cholesterol, and cholesterol). The same model was fit for each of the four outcomes. The table below gives the estimated coefficients for each of the 4 primary outcome variables.

[2] = system: individuals with SLOS; conditions: cited from earlier work
[3] = 6 SLOS children, model with age, age difference, age at cholesterol, cholesterol
[4] = model leaving out age at cholesterol
[5] = model leaving out age difference from last visit

CC(C)CCC[C@@H](C)[C@H]1CC[C@H]2[C@@H]3CC=C4C[C@@H](O)CC[C@]4(C)[C@H]3CC[C@]12C [Cholesterol, cholesterol]
Cholesterol effect (regression coefficient) on average change in ADI Nonverbal score per year [1, 3]: −2.51 | Cholesterol effect (regression coefficient) on average change in ADI Repetitive score per year [1, 3]: 1.54 | Cholesterol effect (regression coefficient) on average change in ADI Social score per year [1, 3]: −7.07 | Cholesterol effect (regression coefficient) on average change in ADI Verbal score per year [1, 3]: −6.97 | ADI Repetitive domain: average worsening ([1]; SLOS children on cholesterol supplementation, p value<0.001): 1.54 points | ADI Social domain: average improvement more than children not on supplementation ([1]; SLOS individuals on cholesterol supplementation, p value 0.008): 7.07 points | Association of cholesterol supplementation with social, verbal and non-verbal scores (correlation matrix, FIG. 1) ([1]; children who have already begun supplementation, not accounting for age or other factors): scores tend to be lower on average | Social and communication abilities with cholesterol supplementation ([1]; in SLOS): improvement was found | Cholesterol effect (regression coefficient) on average change in ADI Nonverbal score per year [1, 4]: −2.56 | Cholesterol effect (regression coefficient) on average change in ADI Repetitive score per year [1, 4]: 1.23 | Cholesterol effect (regression coefficient) on average change in ADI Social score per year [1, 4]: −5.14 | Cholesterol effect (regression coefficient) on average change in ADI Verbal score per year [1, 4]: −6.77 | Cholesterol effect (regression coefficient) on average change in ADI Nonverbal score per year [1, 5]: −2.05 | Cholesterol effect (regression coefficient) on average change in ADI Repetitive score per year [1, 5]: 1.45 | Cholesterol effect (regression coefficient) on average change in ADI Social score per year [1, 5]: −6.97 | Cholesterol effect (regression coefficient) on average change in ADI Verbal score per year [1, 5]: −4.14 | ADI language domain (non-verbal) score improvement ([1]; non-verbal SLOS children on cholesterol supplementation, p value 0.04): 2.51 | ADI verbal score average change (given as increase) ([1]; verbal SLOS children on cholesterol supplementation, p value<0.001): 6.97 points | Developmental status over time with cholesterol supplementation ([2]; SLOS, one group): did not improve | Growth, speech articulation and neurodevelopmental status with cholesterol supplementation ([2]; SLOS, some reports): improves | Irritability, sleep disturbance and obsessive compulsive behavior with cholesterol supplementation ([2]; individuals with SLOS): improve with cholesterol supplementation
